Assay results reported in patent US20220289787A1, “DIMER COMBINATIONS AND USES THEREOF” (Ripple Therapeutics Corporation, priority 2019, published 2022).

Assay: Drug release from heat-molded pellets of Compound 1 in PBS at 37° C. (HPLC)
Type: physicochemical
Conditions: FIG. 2
Procedure: Heat-molded pellets from Compound 1 (^˜1 mm×1 mm) were placed in 20 mL glass vials and 2 mL of the release buffer phosphate buffered saline (PBS) was added.

With `C[C@@H]1C[C@H]2[C@@H]3CCC4=CC(=O)C=C[C@]4(C)[C@@]3(F)[C@@H](O)C[C@]2(C)[C@@]1(O)C(=O)COC(=O)OCCOCCOCCOC(=O)OCC(=O)[C@@]1(O)[C@H](C)C[C@H]2[C@@H]3CCC4=CC(=O)C=C[C@]4(C)[C@@]3(F)[C@@H](O)C[C@@]21C` [Compound 1, dexamethasone-triethylene glycol-dexamethasone] the “dexamethasone release profile (cumulative drug release)” value (heat-molded pellets ~1 mm×1 mm) was “zero-order (e.g., near zero order) release” and the “duration of zero-order release” value (heat-molded pellets) was “at least 100 days”.
